Patent publication US7220827B2, “Compound binding to leukocytes and medicinal composition containing the compound in labeled state as the active ingredient” (Nihon Medi-Physics Co., Ltd., priority 2002, dated 2007)

System: human leukocytes (granulocytes; lymphocytes and monocytes)
Assay: Distribution of Tc-99m labeled peptides in human blood (Percoll density gradient)
Type: cell-based
Conditions: incubation 30 minutes
Text: In order to confirm clinical effectiveness of the peptide of the present invention in human, binding affinities to leukocytes of two types of peptides of the present invention were examined by using human blood. The peptide 3 and the peptide 6 labeled with Tc-99m in Example 2 were separated into unlabeled peptides and labeled peptides, and purified by reversed phase HPLC under the same conditions as of HPLC in Example 2. […]
The conventionally known peptides, Tc-99m-peptide 11 and Tc-99m-peptide 12, were prepared. Each of the peptide 11 and the peptide 12 was dissolved in dimethylformamide to prepare a solution having the concentration of 0.1 mg/500 μl. A solution of SnCl2/10 mM hydrochloric acid (5 mg/10 ml) 50 μl was added to a tartaric acid/PBS solution (5 mg/200 μl), and the peptide solution was added thereto. Then ^99mTcO4^− solution (2738 MBq/ml) 0.25 μl was infused immediately thereafter and shaken for several seconds to perform labeling reaction at 120° C. for 10 minutes. Final concentration was about 855.6 MBq/125 mg/ml. Purification and measurement of radiochemical purity were performed by using preparative HPLC. Analysis was performed under the same conditions as in Example 2, i.e. gradient: 20%→50% (0.1% TFA acetonitrile/0.1% TFA water); 0→20 minutes. Radioactivity concentration after the purification was 287–311 MBq/ml.
Subsequently, a Percoll density gradient solution was prepared based on the method described in Example 3.
Blood, 20–30 ml, was collected from adult volunteers, 40 years old or less. The Tc-99m labeled peptides, 30 μl (111 MBq/ml, 1.8×10^−11 mol/ml as Tc-peptide) each, were added thereto and incubated for 30 minutes. The blood sample 2–3 ml was layered over carefully to the prepared Percoll density gradient solution. After centrifugation at 2000 rpm (800×g) for 15 minutes, the tube was frozen and each fraction was cut off by using a cutter, then the radioactivity of each fraction was measured using Auto-Well Gamma Counter to determine the radioactivity distribution of Tc-99m-labeled peptides in the blood components.

Q: Which results are given for Tc-99m-glucoheptonic acid?
A: radioactivity distributed in the plasma fraction: 95.39%; radioactivity distribution in the granulocyte fraction: 1.11 % of the radioactivity in the whole blood; radioactivity distribution in the lymphocyte and monocyte fraction: 2.52 % of the radioactivity in the whole blood
